Assay results from US10487058B2, “Cyclopropyl unsaturated quinoline compound used as leukotriene receptor antagonist and applications thereof” (Guangdong Moltech Pharma Co. Ltd, priority 2015, dated 2019).

Legend:
[1] = test system: histamine and acetylcholine induced asthma guinea pigs; test: Anti-asthmatic effect of CS-0090-4 on histamine and acetylcholine induced asthma guinea pigs; type: in vivo, guinea pig
Description: 0.2 g choline and 0.01 g histamine were weighed and put into beakers respectively, and then respectively each beaker were added with 10 ml distilled water and blended to homogeneity.
The healthy guinea pigs with body weight of 180 to 220 g were taken and placed in a closed glass bell jar one by one firstly; after the guinea pigs became quiet, an atomization apparatus was started to spray an asthma-induced medical liquid (a solution of 2% acetylcholine chloride and 0.1% histamine phosphate mixed in equal volume) until the guinea pigs tumbled, then the pulverization was stopped, and the asthma latent period (time period from the beginning of pulverization to onset of asthma and dyspnea, till convulsions and tumble) was observed, and qualified animals having a asthma latent period ≤120 s were screened.
The qualified guinea pigs screened were randomly divided into four groups, which were a high-dosage group, a median-dosage group, a low-dosage group, and a positive control group. The guinea pigs in each group were subjected to oral gavage administration continuously for 7 days with a dosage of 1 ml/100 g. The induced asthma latent period was determined in 1 h after administration on the last day.

[2] = test system: histamine and acetylcholine induced asthma guinea pigs; test: Anti-asthmatic effect of CS-0090-2 on histamine and acetylcholine induced asthma guinea pigs; type: in vivo, guinea pig
KM mice = conditions: oral gavage three times in one day, observed 7 days
guinea pig asthma models = test: Anti-asthmatic effect of CS-0090-1 on guinea pig asthma models (histamine/acetylcholine atomization); type: in vivo
[3] = 3 mg·kg^−1 group, self-control baseline

CC(C)(O)c1ccccc1CC[C@@H](SCC1(CC(=O)O)CC1)c1cccc(/C=C/c2ccc3ccc(Cl)cc3n2)c1 [Montelukast]
Asthma latent period before administration [1, 3]: 48.17 ± 4.62
Asthma latent period after administration ([1]; 3 mg·kg^−1 oral gavage 7 days, 1 h after last dose): 59.83 ± 7.08
Induced asthma latent period (s) within 6 min Before administration [2, 3]: 48.2 ± 4.6 s
Induced asthma latent period (s) within 6 min After administration ([2]; 3 mg·kg^−1 oral gavage 7 days, 1 h after last dose, capped at 360 s): 59.8 ± 7.1 s
maximum dosage (KM mice): 2280 mg/kg
Induced asthma latent period before administration (guinea pig asthma models; [3]): 48.17 ± 4.62 s
Induced asthma latent period after administration (guinea pig asthma models; 3 mg·kg^−1 oral gavage once a day for 7 days, 1 h after last dose, capped at 6 min): 63.00 ± 7.13 s
